pIC50: −log10 of the molar value. Where “and” joins values, the source holds several entries; their conditions need not be identical. Equal entries are not always repeated.
System: 266295-075-R-J1-PDC spheroid viability
Assay: Anticancer human tumor 266295-075-R-J1-PDC patient-derived head and neck squamous carcinoma cell line growth inhibition [POLQ]
Conditions: spheroids with HUVEC and MSC; for viability, T/C: stronger effect = lower value
Description: Multicellular complex tumor spheroid response to Polymerase (POL) inhibitors (novobiocin, ART-558, RP6685) in combination with a variety of drugs and investigational agents in selected tumor cell lines
The POL inhibitors (novobiocin, ART-558, and RP6685) were evaluated both individually and in combination with standard of care and investigational anticancer small molecules within a complex spheroid model of solid tumors. . Complex spheroids include a stromal component modeled by human endothelial cells (HUVEC) and fibroblasts modeled by human mesenchymal stem cells (MSCs). The concentration ranges selected for each drug and investigational agent were based upon clinically achievable concentrations if the clinical Cmax of the agent was known.
Compounds. The drugs and investigational agents: novobiocin (NSC847541), ART-558 (NSC835418), RP-6685 (NSC848927), peposertib (NSC802822), ceralasertib (NSC780249), elimusertib (NSC800525), camonsertib (NSC841442), AZD-1390 (NSC803789), olaparib (NSC753686), talazoparib (NSC767125), rucaparib (NSC756644), sotorasib (NSC818433), MRTX-1133 (NSC836407), SN-38 (NSC673596), topotecan (NSC609699), epotoside (NSC141540), doxorubicin (NSC123127), gemcitabine (NSC613327), 5-fluorouracil (NSC19893), paclitaxel (NSC125973), vemurafenib (NSC761431), MSA-2 (NSC828583), SN-011 (NSC837082), adavosertib (NSC754352), prexasertib (NSC758257), carboplatin (NSC241240) and oxaliplatin (NSC266046), were obtained from the National Cancer Institute (NCI) Developmental Therapeutics Program Chemical Repository (21). The FDA-approved anticancer drug set is available from the Developmental Therapeutics Program at https://dtp.cancer.gov/organization/dscb/obtaining/. […] The stock solutions were prepared in dimethyl sulfoxide (DMSO, Sigma-Aldrich, St. Louis, MO, cat. D2650), except for the platinum compounds which were prepared in saline (Quality Biological, Gaithersburg, MD, cat. 114-055-101), at 800-fold the tested concentration and stored at -70 degrees C prior to their use. All drugs and investigational agents were tested over a range starting from a high concentration at or near the clinical Cmax and decreasing in half-log increments. If the clinical Cmax for an agent had not been determined, the highest concentration tested was 10 microM, except for SN-38, which was tested at a high concentration of 1 microM.
Cell Culture. All cells were maintained in an incubator at 37 degrees C and 5% CO2 with 95% humidity. The PDC lines were cultured according to standard operating procedures established by the NCI PDMR (https://pdmr.cancer.gov). Table 3 of the manuscript, lists the cell lines along with the number of the three cell types plated to form the mct-spheroids and media for tumor cell growth. After thawing, all PDC lines, except 997537-175-T-J1-PDC and 415267-285-R-J2-PDC, were cultured in Matrigel-coated flasks prepared with a working solution of 1X Ham's F-12 nutrient mix, without supplementation (Thermo Fisher Scientific, cat. 11765054), 100 U/mL penicillin-streptomycin (Thermo Fisher Scientific, cat. 15140122), and 2.5% Matrigel (Corning Inc., Corning, NY, cat. 354248) for the first three passages. The two PDC lines 997537-175-T-J1-PDC and 415267-285-R-J2-PDC were cultured on uncoated flasks. The 857933-349-R-J2-PDC line was cultured in 6C/Colon 1B media containing advanced DMEM/F-12 (Thermo Fisher Scientific, cat. 12634028), 10 mM HEPES (Thermo Fisher Scientific, cat. 15630080), 1X GlutaMAX supplement (Thermo Fisher Scientific, cat. 35050061), 0.1 mg/mL primocin (InvivoGen, San Diego, CA, cat. ant-pm-2), 10% defined fetal bovine serum, heat inactivated (HyClone Laboratories Inc., Logan, UT, cat. SH30070.03HI), 50% L-WRN conditioned media (ATCC, cat. CRL-3276), 1.25 mM N-Acetyl-L-cysteine (Sigma-Aldrich, cat. A9165), 10 mM nicotinamide (Sigma-Aldrich, cat. N0636), 1X B-27 supplement (Thermo Fisher Scientific, cat. 17504044), 1X N-2 supplement (Thermo Fisher Scientific, cat. […]
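Also: spheroids exposed to compounds for seven days before readout.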

`CC1COCCN1c1cc(C2(S(C)(=N)=O)CC2)nc(-c2ccnc3[nH]ccc23)n1` (centres undefined) + Cc1cccc(N(C)C(=O)C2C(O)CCN2c2nc(C)cc(C(F)(F)F)c2C#N)c1 showed a pIC50 (curve of first compound, second compound 0.0316 µM) of less than 5.00, a pIC50 (curve of first compound, second compound 0.1 µM) of less than 5.00 and a pIC50 (curve of first compound, second compound 0.316 µM) of less than 5.00. It also gave a pIC50 (curve of first compound, second compound 1 µM) of 5.03, a pIC50 (curve of first compound, second compound 3.16 µM) of less than 5.00 and a pIC50 (curve of first compound, second compound 10 µM) of less than 5.00. The viability, T/C (second compound 0.0316 µM, first compound 0.0316 µM) was 101%, the viability, T/C (second compound 0.0316 µM, first compound 0.1 µM) was 83.2% and the viability, T/C (second compound 0.0316 µM, first compound 0.316 µM) was 87%. It also gave a viability, T/C (second compound 0.0316 µM, first compound 1 µM) of 79.8%, a viability, T/C (second compound 0.0316 µM, first compound 3.16 µM) of 81.3% and a viability, T/C (second compound 0.0316 µM, first compound 10 µM) of 57%. It also gave a viability, T/C (second compound 0.1 µM, first compound 0.0316 µM) of 95.2%, a viability, T/C (second compound 0.1 µM, first compound 0.1 µM) of 83.5% and a viability, T/C (second compound 0.1 µM, first compound 0.316 µM) of 79.3%. For the same compound, the viability, T/C (second compound 0.1 µM, first compound 1 µM) was 86.8%, the viability, T/C (second compound 0.1 µM, first compound 3.16 µM) was 72.1% and the viability, T/C (second compound 0.1 µM, first compound 10 µM) was 55.1%. For the same compound, the viability, T/C (second compound 0.316 µM, first compound 0.0316 µM) was 89.8%, the viability, T/C (second compound 0.316 µM, first compound 0.1 µM) was 98.6% and the viability, T/C (second compound 0.316 µM, first compound 0.316 µM) was 111%. It also gave a viability, T/C (second compound 0.316 µM, first compound 1 µM) of 81.4%, a viability, T/C (second compound 0.316 µM, first compound 3.16 µM) of 75.8% and a viability, T/C (second compound 0.316 µM, first compound 10 µM) of 56.7%. The viability, T/C (second compound 1 µM, first compound 0.0316 µM) was 94.4%, the viability, T/C (second compound 1 µM, first compound 0.1 µM) was 100% and the viability, T/C (second compound 1 µM, first compound 0.316 µM) was 96.8%. It also gave a viability, T/C (second compound 1 µM, first compound 1 µM) of 82.5%, a viability, T/C (second compound 1 µM, first compound 3.16 µM) of 69.8% and a viability, T/C (second compound 1 µM, first compound 10 µM) of 48.5%. It also gave a viability, T/C (second compound 3.16 µM, first compound 0.0316 µM) of 103%, a viability, T/C (second compound 3.16 µM, first compound 0.1 µM) of 93.6% and a viability, T/C (second compound 3.16 µM, first compound 0.316 µM) of 81.4%. It also gave a viability, T/C (second compound 3.16 µM, first compound 1 µM) of 89.3%, a viability, T/C (second compound 3.16 µM, first compound 3.16 µM) of 72.5% and a viability, T/C (second compound 3.16 µM, first compound 10 µM) of 55.2%. For the same compound, the viability, T/C (second compound 10 µM, first compound 0.0316 µM) was 92.8%, the viability, T/C (second compound 10 µM, first compound 0.1 µM) was 98.1% and the viability, T/C (second compound 10 µM, first compound 0.316 µM) was 97.1%. For the same compound, the viability, T/C (second compound 10 µM, first compound 1 µM) was 94.3%, the viability, T/C (second compound 10 µM, first compound 3.16 µM) was 74.2% and the viability, T/C (second compound 10 µM, first compound 10 µM) was 56.2%.

In the case of `C=CC(=O)N1CCN(c2nc(=O)n(-c3c(C)ccnc3C(C)C)c3nc(-c4c(O)cccc4F)c(F)cc23)C(C)C1` (centres undefined), the viability, T/C (compound 0.0316 µM) was 85.8% and 77.5% and 104%, the viability, T/C (compound 0.1 µM) was 98.6% and 98% and 100% and the viability, T/C (compound 0.316 µM) was 100% and 98.1% and 101%. For the same compound, the viability, T/C (compound 1 µM) was 104% and 95.8% and 112%, the viability, T/C (compound 3.16 µM) was 120% and 102% and 128% and the viability, T/C (compound 10 µM) was 110% and 129% and 93.2%. It also gave a pIC50 (curve of compound) of less than 5.00.

Source: PubChem BioAssay AID1963853 (Molecular Pharmacology Branch, DTP, NCI, 2024)
